Experimental data as given in PMC3351444, “Molecular Evolution of a Peptide GPCR Ligand Driven by Artificial Neural Networks” (PLoS ONE, 2012).
Like-named read-outs stand apart in the source and are kept apart here. Square brackets hold non-standard residues; d marks the D form. Ends that are not written are not given here. Peptide text beside a SMILES is read from it.

Experiments:
[1] = In vitro peptide stability in human serum (RP-HPLC); details: for half-life at 50 µg/mL: human; for t1/2: metabolic stability in human serum
human CMKLR1 = target: T1, human CMKLR1 (Homo sapiens, UniProt Q99788); assay: Ca2+ mobilization (CellLux imaging) agonist assay in HEK293A cells expressing CMKLR1 and Gα15; assay type: cell-based
T1 construct: host or cells: HEK293A (Invitrogen), stably expressing human Gα15
T1 sequence (Q99788 1-373): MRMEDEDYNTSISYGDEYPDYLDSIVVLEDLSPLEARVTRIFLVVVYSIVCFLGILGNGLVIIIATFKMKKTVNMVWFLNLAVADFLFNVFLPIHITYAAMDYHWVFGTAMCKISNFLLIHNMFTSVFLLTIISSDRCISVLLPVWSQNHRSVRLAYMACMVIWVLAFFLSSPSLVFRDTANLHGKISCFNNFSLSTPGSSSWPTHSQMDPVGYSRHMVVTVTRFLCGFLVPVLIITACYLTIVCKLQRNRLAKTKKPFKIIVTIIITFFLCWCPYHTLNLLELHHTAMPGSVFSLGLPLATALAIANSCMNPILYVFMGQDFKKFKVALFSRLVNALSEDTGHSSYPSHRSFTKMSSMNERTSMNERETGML
How it was run: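 HEK293A cells co-expressing CMKLR1 and Gα15 were loaded with FLUO4-AM, and peptides were added robotically in C1 buffer (HEPES pH 7.4, 2 mM CaCl2) with 0.1% BSA. Fluorescence changes were read in duplicate wells, buffer-subtracted and normalized to background. EC50 came from amplitude–concentration plots.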

[2] = Ca2+ mobilization, CMKLR1, decimal comma
[3] = Ca2+ mobilization, CMKLR1, decimal comma, NR where no EC50 is given, read-out: EC50
[4] = intracellular calcium mobilization, HEK293 cells expressing CMKLR1, mean of three independent experiments ± SD, read-out: activity: EC50 ±SD

| Molecule | half-life at 50 µg/mL ([1]; human serum, 25% (v/v) in RPMI) [min] | max response (human CMKLR1; [2]) | EC50 (human CMKLR1; [3]) [nM] | t1/2 [1] [min] | EC50 (human CMKLR1; [4]) [nM] | half-life at 50 µg/mL ([1]; serum) [min] | EC50 (human CMKLR1) [nM] |
| --- | --- | --- | --- | --- | --- | --- | --- |
| PGPGQFAFF-OH [compound 59] | 80 | 0,9 DF/F0 | 335 | – | – | – | – |
| YLPGQGAFP-OH [compound 49] | 17 | 0,97 DF/F0 | 28.7 | – | – | – | – |
| YFPGQYAFF-OH [compound 30] | 26 | 0,98 DF/F0 | 1.89 | – | – | – | – |
| CC(C)C[C@H](NC(=O)[C@@H](N)Cc1ccc(O)cc1)C(=O)N1CCC[C@H]1C(=O)NCC(=O)N[C@@H](CCC(N)=O)C(=O)N[C@@H](Cc1ccccc1)C(=O)N[C@H](Cc1c[nH]c2ccccc12)C(=O)N[C@@H](Cc1ccccc1)C(=O)N[C@@H](CO)C(=O)O [compound 41] (H-YLPGQF[dW]FS-OH; N-terminus assumed) | 45 | 0,94 DF/F0 | 7.23 | – | – | – | – |
| CC(C)C[C@H](NC(=O)[C@@H](N)Cc1ccccc1)C(=O)N1CCC[C@H]1C(=O)NCC(=O)N[C@@H](CCC(N)=O)C(=O)NCC(=O)N[C@H](Cc1ccccc1)C(=O)N[C@@H](Cc1ccccc1)C(=O)N[C@@H](CO)C(=O)O [compound 61] (H-FLPGQG[dF]FS-OH; N-terminus assumed) | 41 | 0,73 DF/F0 | 456 | – | – | – | – |
| CC(C)C[C@H](NC(=O)[C@@H](N)Cc1ccc(O)cc1)C(=O)N1CCC[C@H]1C(=O)NCC(=O)N[C@@H](CCC(N)=O)C(=O)N[C@@H](Cc1ccccc1)C(=O)N[C@H](Cc1ccc(O)cc1)C(=O)N[C@@H](Cc1ccccc1)C(=O)N[C@@H](CO)C(=O)O [compound 57] (H-YLPGQF[dY]FS-OH; N-terminus assumed) | 26 | 0,89 DF/F0 | 119 | – | – | – | – |
| FLPGQYAFS-OH | 28 ± 1 | – | – | – | 2.75 ± 0.14 | – | – |
| YLPGQYAFL-OH | 27 ± 4 | – | – | – | 5.75 ± 2.56 | – | – |
| CC(C)C[C@H](NC(=O)[C@@H](N)Cc1ccc(O)cc1)C(=O)N1CCC[C@H]1C(=O)N[C@H](CO)C(=O)N[C@@H](CCC(N)=O)C(=O)N[C@@H](Cc1ccc(O)cc1)C(=O)N[C@@H](C)C(=O)N[C@@H](Cc1ccccc1)C(=O)N[C@H](Cc1ccccc1)C(=O)O [compound 119] (H-YLP[dS]QYAF[dF]-OH; N-terminus assumed) | – | 1,62 DF/F0 | – | – | – | 63 | 0.31 |
| CC(C)C[C@H](NC(=O)[C@@H](N)Cc1ccc(O)cc1)C(=O)N1CCC[C@H]1C(=O)N[C@H](CCC(N)=O)C(=O)N[C@@H](CCC(N)=O)C(=O)N[C@@H](Cc1ccc(O)cc1)C(=O)N[C@@H](C)C(=O)N[C@@H](Cc1ccccc1)C(=O)N[C@H](Cc1ccccc1)C(=O)O [YLPqQYAFf] (H-YLP[dQ]QYAF[dF]-OH; N-terminus assumed) | 87 ± 19 | – | – | – | 4.24 ± 1.87 | – | – |
| PLPGQFQFK-OH [compound 70] | 27 | 0,43 DF/F0 | 1920 | – | – | – | – |

The next lines start with results.

| half-life at 50 µg/mL ([1]; human serum, 25% (v/v) in RPMI) [min] | max response (human CMKLR1; [2]) | EC50 (human CMKLR1; [3]) [nM] | t1/2 [1] [min] | EC50 (human CMKLR1; [4]) [nM] | Molecule | half-life at 50 µg/mL ([1]; serum) [min] | EC50 (human CMKLR1) [nM] |
| --- | --- | --- | --- | --- | --- | --- | --- |
| 40 | 1,02 DF/F0 | 150 | – | – | CC(C)C[C@H](NC(=O)[C@H](Cc1ccc(O)cc1)NC(=O)[C@@H](Cc1ccccc1)NC(=O)[C@@H]1CCCN1C(=O)[C@H](CC(C)C)NC(=O)[C@@H](N)Cc1ccc(O)cc1)C(=O)N1CCC[C@H]1C(=O)NCC(=O)N[C@H](Cc1ccccc1)C(=O)O [compound 145] (H-YLP[dF]YLPG[dF]-OH; N-terminus assumed) | – | – |
| 110 | 1,53 DF/F0 | 697 | – | – | C[C@H](N)C(=O)N[C@@H](Cc1ccccc1)C(=O)N[C@H](CO)C(=O)N[C@@H](CCC(N)=O)C(=O)N[C@@H](Cc1ccccc1)C(=O)N[C@H](CO)C(=O)N[C@@H](C)C(=O)N[C@@H](Cc1ccccc1)C(=O)N[C@H](CO)C(=O)O [compound 106] (H-AF[dS]QF[dS]AF[dS]-OH; N-terminus assumed) | – | – |
| 362 | 1,97 DF/F0 | 1060 | – | – | CC(C)[C@H](NC(=O)[C@@H](Cc1ccc(O)cc1)NC(=O)[C@H](CO)NC(=O)[C@@H]1CCCN1)C(=O)N1CCC[C@H]1C(=O)NCC(=O)N[C@@H](CCC(N)=O)C(=O)N[C@@H](Cc1ccc(O)cc1)C(=O)N[C@@H](C)C(=O)O [compound 107] (H-PS[dY]VPGQYA-OH; N-terminus assumed) | – | – |
| – | 1,82 DF/F0 | – | 1157 | – | CC(C)C[C@H](NC(=O)[C@H](N)Cc1ccccc1)C(=O)N1CCC[C@H]1C(=O)NCC(=O)N[C@@H](CCC(N)=O)C(=O)N[C@@H](Cc1ccc(O)cc1)C(=O)N[C@@H](C)C(=O)N[C@@H](Cc1ccccc1)C(=O)N[C@H](Cc1ccccc1)C(=O)O [compound 83] (H-[dF]LPGQYAF[dF]-OH; N-terminus assumed) | – | – |
| – | 1,74 DF/F0 | – | 87 | – | CC(C)C[C@H](NC(=O)[C@@H](N)Cc1ccc(O)cc1)C(=O)N1CCC[C@H]1C(=O)N[C@H](CCC(N)=O)C(=O)N[C@@H](CCC(N)=O)C(=O)N[C@@H](Cc1ccc(O)cc1)C(=O)N[C@@H](C)C(=O)N[C@@H](Cc1ccccc1)C(=O)N[C@H](Cc1ccccc1)C(=O)O [compound 123] (H-YLP[dQ]QYAF[dF]-OH; N-terminus assumed) | – | – |
| 40 | 1,48 DF/F0 | 72.2 | – | – | CC(C)C[C@H](NC(=O)[C@H](C)NC(=O)[C@H](Cc1ccc(O)cc1)NC(=O)[C@@H](CCC(N)=O)NC(=O)CNC(=O)[C@@H]1CCCN1C(=O)[C@H](CC(C)C)NC(=O)[C@@H](N)Cc1ccc(O)cc1)C(=O)N[C@H](Cc1ccccc1)C(=O)O [compound 135] (H-YLPG[dQ]YAL[dF]-OH; N-terminus assumed) | – | – |
| 2440 | 1,75 DF/F0 | 80.6 | – | – | CC(C)C[C@H](NC(=O)[C@H](N)Cc1ccccc1)C(=O)N1CCC[C@H]1C(=O)NCC(=O)N[C@@H](CCC(N)=O)C(=O)N[C@@H](Cc1ccc(O)cc1)C(=O)N[C@@H](C)C(=O)N[C@@H](Cc1ccccc1)C(=O)N[C@H](CO)C(=O)O [compound 95] (H-[dF]LPGQYAF[dS]-OH; N-terminus assumed) | – | – |
| 71 | 1,69 DF/F0 | 129 | – | – | C[C@H](NC(=O)CN)C(=O)N[C@@H](Cc1ccccc1)C(=O)N[C@@H](CCC(N)=O)C(=O)N[C@@H](Cc1ccccc1)C(=O)N[C@H](CO)C(=O)N[C@@H](C)C(=O)N[C@@H](Cc1ccccc1)C(=O)N[C@H](CO)C(=O)O [compound 100] (H-GAFQF[dS]AF[dS]-OH; N-terminus assumed) | – | – |
| 24 | 1,57 DF/F0 | 21.8 | – | – | CC(C)[C@H](NC(=O)[C@@H](N)Cc1ccc(O)cc1)C(=O)N1CCC[C@H]1C(=O)NCC(=O)N[C@@H](CCC(N)=O)C(=O)N[C@@H](Cc1ccc(O)cc1)C(=O)N[C@@H](C)C(=O)N[C@@H](Cc1ccccc1)C(=O)N[C@H](CO)C(=O)O [compound 86] (H-YVPGQYAF[dS]-OH; N-terminus assumed) | – | – |
| 62 | 1,35 DF/F0 | 284 | – | – | CC(C)C[C@H](NC(=O)[C@@H](N)Cc1ccc(O)cc1)C(=O)N1CCC[C@H]1C(=O)N[C@H](Cc1ccc(O)cc1)C(=O)N[C@H](CCC(N)=O)C(=O)N[C@@H](Cc1ccc(O)cc1)C(=O)N[C@@H](C)C(=O)N[C@@H](CCC(N)=O)C(=O)N[C@H](Cc1ccccc1)C(=O)O [compound 150] (H-YLP[dY][dQ]YAQ[dF]-OH; N-terminus assumed) | – | – |
| 10 | 1,37 DF/F0 | 69.4 | – | – | C[C@H](N)C(=O)N[C@@H](Cc1ccccc1)C(=O)NCC(=O)N[C@H](Cc1ccccc1)C(=O)N[C@H](CCC(N)=O)C(=O)N[C@@H](CO)C(=O)N[C@@H](C)C(=O)N[C@@H](Cc1ccc(O)cc1)C(=O)N[C@@H](CO)C(=O)O [compound 134] (H-AFG[dF][dQ]SAYS-OH; N-terminus assumed) | – | – |
| – | 1,84 DF/F0 | – | 21 | – | C[C@H](NC(=O)[C@H](Cc1ccc(O)cc1)NC(=O)[C@H](CCC(N)=O)NC(=O)CNC(=O)[C@@H]1CCCN1C(=O)[C@H](CCCNC(=N)N)NC(=O)[C@@H](N)Cc1ccc(O)cc1)C(=O)N[C@@H](Cc1ccccc1)C(=O)N[C@H](CO)C(=O)O [compound 84] (H-YRPGQYAF[dS]-OH; N-terminus assumed) | – | – |
| 81 | 1,56 DF/F0 | 145 | – | – | CC(C)C[C@H](NC(=O)[C@@H](N)CC(C)C)C(=O)N[C@@H](Cc1ccc(O)cc1)C(=O)N[C@H](Cc1c[nH]c2ccccc12)C(=O)N1CCC[C@H]1C(=O)N[C@@H](Cc1ccc(O)cc1)C(=O)N[C@@H](C)C(=O)N[C@@H](CCCCN)C(=O)N[C@H](CO)C(=O)O [compound 144] (H-LLY[dW]PYAK[dS]-OH; N-terminus assumed) | – | – |
| 21 ± 4 | – | – | – | 8.62 ± 5.01 | C[C@H](NC(=O)[C@H](Cc1ccc(O)cc1)NC(=O)[C@H](CCC(N)=O)NC(=O)CNC(=O)[C@@H]1CCCN1C(=O)[C@H](CCCNC(=N)N)NC(=O)[C@@H](N)Cc1ccc(O)cc1)C(=O)N[C@@H](Cc1ccccc1)C(=O)N[C@H](CO)C(=O)O (H-YRPGQYAF[dS]-OH; N-terminus assumed) | – | – |
